Source: patent EP0799218B1, “DIARYL-2-(5H)-FURANONES AS COX-2 INHIBITORS” (Merck Frosst Canada & Co., priority 1994, dated 1996)

Key:
Cox-2 = biological target: T1, Cox-2 (Homo sapiens, UniProt P35354); experiment: Human whole blood assay, Cox-2 (LPS-induced PGE2 production); assay type: cell-based; conditions: LPS 100 µg/ml, 24 hours at 37 °C, PGE2 by radioimmunoassay, read-out: HWB Cox-2 IC50
T1 construct: endogenous in cells; host or cells: fresh heparinized human whole blood from volunteers, stimulated with LPS
T1 sequence (P35354 18-604 limits assumed): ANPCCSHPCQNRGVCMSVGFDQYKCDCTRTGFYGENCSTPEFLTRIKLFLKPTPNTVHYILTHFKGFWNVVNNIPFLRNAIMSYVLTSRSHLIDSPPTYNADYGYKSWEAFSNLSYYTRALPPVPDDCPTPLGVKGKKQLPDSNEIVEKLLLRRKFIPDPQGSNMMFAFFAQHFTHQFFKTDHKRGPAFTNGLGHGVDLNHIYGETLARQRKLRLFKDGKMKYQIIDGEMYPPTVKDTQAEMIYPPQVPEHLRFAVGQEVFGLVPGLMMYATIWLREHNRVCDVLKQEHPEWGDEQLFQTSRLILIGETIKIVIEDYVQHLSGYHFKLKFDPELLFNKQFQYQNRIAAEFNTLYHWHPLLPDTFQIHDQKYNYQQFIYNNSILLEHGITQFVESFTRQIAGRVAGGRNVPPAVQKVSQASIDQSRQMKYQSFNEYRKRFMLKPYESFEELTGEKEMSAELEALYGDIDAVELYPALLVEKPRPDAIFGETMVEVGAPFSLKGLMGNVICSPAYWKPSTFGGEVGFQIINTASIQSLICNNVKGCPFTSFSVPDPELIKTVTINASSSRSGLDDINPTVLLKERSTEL
Description: (§1) Human whole blood provides a protein and cell-rich milieu appropriate for the study of biochemical efficacy of anti-inflammatory compounds such as selective Cox-2 inhibitors. […] This is consistent with the observation that Cox-2 inhibitors have no effect on PGE2 production in normal blood. These inhibitors are active only after incubation of human whole blood with LPS (lipopolysaccharide), which induces Cox-2. This assay can be used to evaluate the inhibitory effect of selective Cox-2 inhibitors on PGE2 production: As well, platelets in whole blood contain a large amount of the Cox-1 enzyme. Immediately following blood clotting, platelets are activated through a thrombin-mediated mechanism. This reaction results in the production of thromboxane B2 (TxB2) via activation of Cox-1. Thus, the effect of test compounds on TxB2 levels levels following blood clotting can be examined and used as an index for Cox-1 activity. Therefore, the degree of selectivity by the test compound can be determined by measuring the levels of PGE2 after LPS induction (Cox-2) and TxB2 following blood clotting (Cox-1) in the same assay.
Fresh blood was collected in heparinized tubes by venipuncture from both male and female volunteers. The subjects had no apparent inflammatory conditions and had not taken any NSAIDs for at least 7 days prior to blood collection. Plasma was immediately obtained from a 2mL blood aliquot to use as blank (basal levels of PGE2). The remaining blood was incubated with LPS (100 µg/ml final concentration, Sigma Chem, #L-2630 from E. coli; diluted in 0.1% BSA-Phosphate buffered saline) for 5 minutes at room temperature. Five hundred µL aliquots of blood were incubated with either 2 µL vehicle (DMSO) or 2 µL of a test compound at final concentrations varying from 10nM to 30µM for 24 hours at 37 °C. At the end of the incubation, the blood was centrifuged at 12,000 x g for 5 minutes to obtain plasma. A 100 µL aliquot of plasma was mixed with 400 µL of methanol for protein precipitation. The supernatant was obtained and was assayed for PGE2 using a radioimmunoassay kit (Amersham, RPA#530) after conversion of PGE2 to its methyl oximate derivative according to the manufacturer's procedure.
(§2) Compounds of the present invention are inhibitors of cyclooxygenase-2 and are thereby useful in the treatment of cyclooxygenase-2 mediated diseases as enumerated above. The activities of the compounds against cyclooxygenase may be seen in the representative results shown below. In the assay, inhibition is determined by measuring the amount of prostaglandin E2 (PGE2) synthesized in the presence of arachidonic acid, cyclooxygenase-1 or cyclooxygenase-2 and a putative inhibitor. The IC50 values represent the concentration of putative inhibitor required to return PGE2 synthesis to 50% of that obtained as compared to the uninhibited control.

Cox-1 = biological target: T2, Cox-1 (Homo sapiens, UniProt P23219); experiment: Human whole blood assay, Cox-1 (clotting-induced TxB2 production); assay type: cell-based; conditions: clotting 1 hour at 37 °C, TxB2 by enzyme immunoassay, read-out: HWB Cox-1 IC50
T2 construct: platelets in whole blood contain a large amount of the Cox-1 enzyme; endogenous in cells; host or cells: platelets in fresh human whole blood, no anticoagulant, clotting for 1 hour at 37 °C
Description: as §1
Fresh blood was collected into vacutainers containing no anticoagulants. Aliquots of 500 µL were immediately transferred to siliconized microcentrifuge tubes preloaded with 2 µL of either DMSO or a test compound at final concentrations varying from 10nM to 30 µM. The tubes were vortexed and incubated at 37 °C for 1 hour to allow blood to clot. At the end of incubation, serum was obtained by centrifugation (12,000 x g for 5 min.). A 100 µL aliquot of serum was mixed with 400 µL of methanol for protein precipitation. The supernatant was obtained and was assayed for TxB2 using a enzyme immunoassay kit (Cayman, #519031) according to the manufacturer's instruction.
as §2

Rat Paw Edema = experiment: Rat paw edema assay (carrageenan-induced); assay type: in vivo, Male Sprague-Dawley rats; conditions: po, 1 hr before subplantar carrageenan, paw volume 3 hr later
Description: Male Sprague-Dawley rats (150 - 200 g) were fasted overnight and were given po either vehicle (1% methocel or 5% Tween 80) or a test compound. One hr later, a line was drawn using a permanent marker at the level above the ankle in one hind paw to define the area of the paw to be monitored. The paw volume (V0) was measured using a plethysmometer (Ugo-Basile, Italy) based on the principle of water displacement The animals were then injected subplantarly with 50 µl of 1% carrageenan solution in saline (FMC Corp, Maine) into the paw using an insulin syringe with a 25-gauge needle (i.e. 500 µg carrageenan per paw). Three hr later, the paw volume (V3) was measured and the increases in paw volume (V3 - V0) were calculated. The animals were sacrificed by CO2 aphyxiation and the absence or presence of stomach lesions scored. Data were compared with the vehicle-control values and percent inhibition calculated. Since a maximum of 60-70% inhibition (paw edema) was obtained with standard NSAIDs, ED30 values were used for comparison. All treatment groups were coded to eliminate observer bias.

T2 sequence (P23219 24-599): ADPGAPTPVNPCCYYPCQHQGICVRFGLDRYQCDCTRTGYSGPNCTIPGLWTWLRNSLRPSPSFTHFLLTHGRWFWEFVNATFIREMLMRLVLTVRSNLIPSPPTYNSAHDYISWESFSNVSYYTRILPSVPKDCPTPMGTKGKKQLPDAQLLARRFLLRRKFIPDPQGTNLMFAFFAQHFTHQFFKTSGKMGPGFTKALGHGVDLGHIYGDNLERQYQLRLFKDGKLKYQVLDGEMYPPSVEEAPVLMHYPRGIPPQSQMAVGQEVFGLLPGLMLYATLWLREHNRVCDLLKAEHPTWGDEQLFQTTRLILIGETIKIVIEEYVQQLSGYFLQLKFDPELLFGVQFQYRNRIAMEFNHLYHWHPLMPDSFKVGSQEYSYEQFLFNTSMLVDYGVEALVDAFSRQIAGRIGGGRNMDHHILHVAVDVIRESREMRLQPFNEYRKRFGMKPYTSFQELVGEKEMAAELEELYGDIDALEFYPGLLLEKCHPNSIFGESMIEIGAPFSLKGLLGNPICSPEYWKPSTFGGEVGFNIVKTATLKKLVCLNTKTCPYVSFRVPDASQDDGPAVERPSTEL

IC50 (Cox-2) [nM]	IC50 (Cox-1) [nM]	Compound	ED30 (Rat Paw Edema) [mg/kg]
810	> 30000	COc1cccc(C2=C(c3ccc(S(C)(=O)=O)cc3)C(C)(C)OC2=O)c1 [Example 2, 5,5-Dimethyl-3-(3-methoxyphenyl)-4-(4-(methylsulfonyl)phenyl)-2-(5H)-furanone]	0.3
170	> 30000	CC1(C)OC(=O)C(c2ccccc2)=C1c1ccc(S(C)(=O)=O)cc1 [Example 4, 5,5-Dimethyl-4-(4-(methylsulfonyl)phenyl)-3-phenyl-2-(5H)-furanone]	0.26
370	30000	CS(=O)(=O)c1ccc(C2=C(c3ccccc3)C(=O)OC23CCCC3)cc1 [Example 10, 4-(4-(Methylsulfonyl)phenyl)-3-phenyl-1-oxa-spiro[4,4]non-3-en-2-one]	0.41
60	2200	CC1(C)CC(c2ccc(S(C)(=O)=O)cc2)=C(c2ccccc2)C1=O [Example 11, 5,5-Dimethyl-3-(4-(methylsulfonyl)phenyl)-2-phenylcyclopent-2-enone]	1.17
600	> 30000	CS(=O)(=O)c1ccc(C2=C(c3ccccc3)C(=O)OC23CC3)cc1 [Example 13, 7-(4-(Methylsulfonyl)phenyl)-6-phenyl-4-oxa-spiro[2,4]-hept-6-en-5-one]	0.3
1100	> 30000	CS(=O)(=O)c1ccc(C2=C(c3ccccc3)C(=O)OC2(CF)CF)cc1 [Example 14, 5,5-Bisfluoromethyl-3-phenyl-4-(4-(methylsulfonyl)phenyl)-2-(5H)-furanone]	0.62
